Assay results published in US20250199015A1, “CYCLIN-DEPENDENT KINASE 2 INHIBITORS FOR MEDICAL TREATMENT” (INCYCLIX BIO, LLC, priority 2022, published 2025).

Assays:
SKOV3 cells = experiment: CellTiter Glo cell proliferation assay; format: cell-based; conditions: lacking cyclin E amplification
Protocol: (§1) Plates were returned to the incubator for six additional days. On day six post dosing, plates were removed and treated with CellTiter Glo reagent following manufacturer's specifications. Plates were incubated 45 minutes at room temperature and run on Biotek luminometer with 1 sec/well detection. Results were converted to Microsoft Excel and transferred to Graphpad Prism for analysis. […] These cell types are distinguished by either gained of cyclin E1 expression or activation (Kuramochi) or intrinsic amplification of cyclin E1 (OVCAR-3, COV318).

PA-1 cells = experiment: CellTiter Glo cell proliferation assay; format: cell-based; conditions: lacking cyclin E amplification
Protocol: as §1

[1] = system: MKN-1 cell loaded Hollow Fibers; experiment: Mouse hollow fiber assay (CellTiter Glo); format: in vivo, mice; conditions: 75, 100, 150 mg/kg twice daily, Day 16
Protocol: The mouse hollow fiber assay was conducted using three tumor cell lines, OVCAR-3 (ovarian), MKN-1 (gastric), and HCC-1569 (breast), 1e7 OVCAR-3, 5e6 MKN-1, and 1e7 HCC-1569 cells were loaded into Hollow Fibers, placed in cell culture dishes containing RPMI-1640 with 20% FCS and 1% penicillin/streptomycin, and were equilibrated in an incubator at 37 C, 5% CO2 overnight. On Day 0, three fibers were implanted in two different compartments: subcutaneous and intraperitoneal of twenty-four female NMRI nude mice ages 4-5 weeks. […] Female NMRI nude mice were implanted both subcutaneously and intraperitoneally with HCC-1569, MKN1, and OVCAR3 tumor cell-loaded Hollow Fibers on Day 0. The number of animals alive on Day 0 (implantation) and on Day 16 (necropsy) in each group is shown in parentheses in the legend.
MKN-1 cell loaded Hollow Fibers were implanted both subcutaneously and intraperitoneally into female NMRI nude mice on Day 0. Hollow Fibers were collected during necropsy on Day 16 and analyzed using a CellTiter Glo® assay.

H69 (NCIH69) cells = experiment: CellTiter Glo cell proliferation assay (single agent and chemotherapy combination); format: cell-based, human
Protocol: (§2) Plates returned to incubator for six additional days. On day six post dosing, plates were removed and treated with CellTiter Glo reagent following manufacturer's specifications. Plates incubated 45 minutes at room temperature and run on a Biotek luminometer with 1 sec/well detection. Results were converted to Microsoft Excel and transferred to GraphPad Prism for analysis.
(§3) Dose curves ranged from 300 pM to 10 μM in triplicate and treatments lasted for 6 days. Plates were removed from incubator at each specified timepoint and treated with CellTiter-Glo (Promega, Inc) following manufacturer specifications. Plates were then read on CLARIOstar luminometer with 1 sec/well integration.
as §3, with “integration. Results were converted to Microsoft Excel and transferred to GraphPad Prism for Analysis.” for “integration.”

SHP77 cells = experiment: as above; format: cell-based, human
Protocol: as §2, §3
as §3, with “integration. Results were converted to Microsoft Excel and transferred to GraphPad Prism for Analysis.” for “integration.”

H526 cells = experiment: Cell cycle by EdU flow cytometry (nocodazole release, time course, cisplatin combination); format: cell-based, human; conditions: 300 nM
Protocol: The H526 human lung carcinoma cell line was grown in RPMI-1640/1× Glutamax/10% fetal bovine serum and was plated at 200,000 cells/well in Corning 6 well tissue culture treated plates. Cells were incubated at 37° C. for 24 hours prior to addition of 50 ng/mL nocodazole to arrest the cells in G2/M. One plate was untreated for comparison. After 16 hours, the asynchronous well and one synchronized well were collected. […] Cells were incubated with 10 μM EdU for 1 hour prior to collected and were then fixed in 1% paraformaldehyde. Cells were incubated with Pacific blue azide dye as described by Thermo Scientific. Cells were then incubated with FarRed dye and RNase. Cells were analyzed on a BD Celesta and data compiled using FloJo and GraphPad (FIG. 23). Cells survived slightly better with lower nocodazole dose (50 vs 100 ng/mL) but there was still cell death observed, particularly following S phase after release.
The H526 human lung carcinoma cell line was grown in RPMI-1640/1× Glutamax/10% fetal bovine serum and was plated at 200,000 cells/well in Corning 6 cm tissue culture treated plates. […] Cells were treated for the indicated amount of time, with 10 μM EdU added for the last hour of treatment. Cells were collected and fixed in 1% paraformaldehyde. Cells were incubated with Alexa 488 azide dye as described by Thermo Scientific. Cells were then incubated with FarRed dye and RNase. Cells were analyzed on a BD Celesta and data compiled using FloJo and GraphPad (FIG. 24).
The H526 human lung carcinoma cell line was grown in RPMI-1640/1× Glutamax/10% fetal bovine serum and was plated at 200,000 cells/well in Corning 6 cm tissue culture treated plates. Cells were incubated at 37° C. for 24 hours prior to addition of the first treatment. […] Cells were treated to 24 hours post-initial treatment, with 10 μM EdU added at hour 23 (FIG. 28A). Cells were collected and fixed in 1% paraformaldehyde. Cells were incubated with pacific blue azide dye as described by Thermo Scientific. Cells were then incubated with antibody against γ-H2AX at a ratio of 1:50 before incubation with FarRed dye and RNase. Cells were analyzed on a BD Celesta and data compiled using FloJo and GraphPad.

MKN1 cells = experiment: Cell cycle by EdU flow cytometry with washout; format: cell-based, human; conditions: 300 nM, 24 hr post-initial treatment (0 hr after washout)
Protocol: The MKN1 human stomach carcinoma cell line was grown in RPMI-1640/1× Glutamax/10% heat inactivated fetal bovine serum and was plated at 300,000 cells/well in 6 cm tissue culture treated plates. […] At 24 hours, the remaining plates were rinsed with media before un-treated media was added back. Cells were collected at the indicated times, with 10 μM EdU added for the last hour (FIG. 21A). Cells were collected and fixed in 1% paraformaldehyde. Cells were incubated with Pacific blue azide dye as described by Thermo Scientific. Cells were then incubated with FarRed dye and RNase. Cells were analyzed on a BD Celesta and data compiled using FloJo and GraphPad. Approximately 95% of MKN1 cells were arrested at G1 at 24 hr post-initial treatment (0 hr after washout) (FIG. 21B). […] At 48 hr post-washout, MKN1 cells were synchronized.

[2] = 100 nM Compound I with camptothecin dose curve, 6 days

SMILES: NS(=O)(=O)c1ccc(Nc2ncc3cc4n(c3n2)C2(CCCCC2)C(=O)NN4)cc1 [Compound I]
- inhibition compared with palbociclib (SKOV3 cells): comparable to palbociclib alone
- inhibition compared with palbociclib (PA-1 cells): comparable to palbociclib alone
- tumor bioluminescence signal (CellTiter Glo) of Hollow Fibers [1]: only observed in mice administered Compound I intraperitoneally at 75 mg/kg twice per day
- cellular proliferation IC50, combined with camptothecin, versus single agents (H69 (NCIH69) cells; [2]): lower IC50 value
- inhibition compared with palbociclib (H69 (NCIH69) cells; six days): low nanomolar concentrations
- cellular proliferation IC50, combined with camptothecin, versus single agents (SHP77 cells; [2]): comparable
- inhibition compared with palbociclib (SHP77 cells; six days): low nanomolar concentrations
- S phase entry after nocodazole release (H526 cells): slower to enter S phase
- cells in G1 phase compared with PF-07104091 (H526 cells; 24 hours): Substantially fewer H526 cells treated with Compound I were in G1 phase
- cells in G2/M phase compared to control (H526 cells; 24 hours): increase of cells in G2/M phase
- cells in S phase compared with PF-07104091 (H526 cells; 48 hours): substantially fewer H526 cells treated with Compound I were in S phase
- cells arrested at G1 (MKN1 cells): Approximately 95%
